From US6083941A, “Inhibition of NMDA receptor activity by pregnenolone sulfate derivatives” (Trustees of Boston University, priority 1998, dated 2000) come the findings set out here.

Series [1] can be described thus: Maximal solubility in the external buffer. Format: physicochemical. Particulars: pH 7.2, aqueous buffer, 0.5% dimethyl sulfoxide.
In a further series the test system is NMDA receptor. The series can be described thus: Whole cell patch clamp, NMDA-induced current in cultured chick spinal cord neurons. Format: cell-based. Particulars: for inhibition of the NMDA response by extracellular steroid: 100 μM extracellular; for pIC50: read-out: IC50 for inhibition of the NMDA response. The protocol:
(§1) Cultures of dissociated spinal cord neurons were prepared as previously described (Farb, D. H., et al., J. Cell Biol., 80:651-661 (1979)). Briefly, the dissociated cells from 7-day chick embryos were plated on collagen-coated 35-mm tissue culture dishes in Eagle's minimum essential medium supplemented with 2.4 mM glutamine, 10% (v/v) heat-inactivated horse serum, 5% (v/v) chick embryo extract and antibiotics. Cultures were maintained in a humidified atmosphere of 5% CO2, 95% air at 37°. Cytarabine (1 μM) was added to the culture medium after 36 hr. of the initial plating to inhibit the proliferation of non-neuronal cells. One day later, this medium was replaced with a similar medium supplemented with 20.5 mM glucose, 19 mM KCl, and 2.5% chick embryo extract. Fresh medium was added twice weekly. Cultured neurons were used in experiments within 2-4 weeks after plating.
Experiments were carried out in 35-mm tissue culture dishes on the stage of an inverted phase contrast microscope. Whole cell currents were recorded by the whole cell variant of the patch clamp technique (Hamill, O. P., et al., Pfagers Arch. 891:85-100 (1981)). Patch electrodes had tip openings of about […] and resistances of 3-8 M.OMEGA. using an intracellular solution comprised of the following (in mM): 140 CsCl, 11 EGTA, and 10 HEPES (pH adjusted to 7.2 with CsOH). In experiments in which a high concentration of glycine was used, the intracellular solution was replaced with a low chloride (10 mM) pipette solution. This solution contained the following (in mM): 140 potassium gluconate, 10 KCl, 8 sodium gluconate, 11 EGTA, and 10 HEPES (pH adjusted to 7.2 with KOH). To prevent a marked run-down of NMDA-induced current at high NMDA concentrations, 4 mM potassium ATP was included in the intracellular solution. The bath solution contained the following (in mM): 150 NaCl, 4 KCl, 1 CaCl2, and 10 HEPES (pH adjusted to 7.2 with NaOH). No glycine was added to the solutions containing NMDA, because no additional glycine was required to obtain a robust NMDA response, and there was no effect of a maximal concentration (10 μM) of glycine on 5β3αS inhibition of the NMDA response. All experiments were performed at room temperature (23-25° C.).
Recordings were made using an Axopatch 1B patch clamp apparatus (Axon Instruments, Burlingame, Calif.). Cells with series resistances greater than 10 M.OMEGA. were rejected. After partial compensation, series resistances were between 3.5 and 6 M.OMEGA.. The holding potential was maintained at -70 mV unless otherwise noted. Currents were filtered at 1 kHz using an eight-pole Bessel filter (-3 dB) and digitized ([…]) using an on-line data acquisition system (pClamp, Axon Instruments).
Drug solutions were applied to single neurons by pressure ejection (15 psi) from seven-barrel pipettes. Seven-barrel pressure pipettes were positioned approximately […] from the neuronal soma. Under these conditions, the drug solution in the pressure pipette rapidly and effectively replaces the solution surrounding the target neurons with less than 10% dilution (Choi, D. W., et al., Nature (Lond.) 269:342-344 (1977); Chan, C. Y., et al., Life Sci., 83:2061-2069 (1983); Chan, C. Y. and Farb, D. H., J. Neurosci., 5:2365-2373 (1985)). All drugs were obtained from Sigma, with the except of AMPA hydrobromide (Research Biochemicals) and steroids (Steraloids). Stock solutions of steroids were prepared in dimethyl sulfoxide, the final concentration of which was 0.5% (v/v). To obviate the possible effects of dimethyl sulfoxide on the relevant agonist-induced currents, all other drug solutions including NMDA, kainate, AMPA and external buffer (in the pressure pipette) also contained 0.5% dimethyl sulfoxide. […]

The subject of a further series is kainate receptors. Description: Whole cell patch clamp, kainate-induced current in cultured chick spinal cord neurons. Format: cell-based. Particulars: 100 μM steroid; -70 mV. Here is the method: as §1
(§2) Experiments were carried out in 35-mm tissue culture dishes on the stage of an inverted phase contrast microscope. Whole cell currents were recorded by the whole cell variant of the patch clamp technique (Hamill, O. P., et al., Pfagers Arch. 891:85-100 (1981)). Patch electrodes had tip openings of about […] and resistances of 3-8 M.OMEGA. using an intracellular solution comprised of the following (in mM): 140 CsCl, 11 EGTA, and 10 HEPES (pH adjusted to 7.2 with CsOH). […]
(In patch-clamp work, channel activity is measured electrically.)

The target of series [2] is T1, recombinant NMDA receptors (NR1100 and NR2A subunits) (Rattus norvegicus, UniProt P35439+Q00959).
T1 construct: expressed in transfected cells; host or cells: Xenopus laevis oocytes injected with in vitro transcribed mRNA
The series can be described thus: Two electrode voltage-clamp of Xenopus oocytes expressing recombinant NMDA receptors. Format: cell-based. The protocol: RNA preparation. mRNA were prepared through in vitro transcription of NR1100 and NR2A cDNAs using the mMessage mMachine kit (Ambion, Tex.). NR1100 and NR2A clones were kindly provided by Dr. Zukin and Dr. Nakanishie.
Xenopus expression system. Female, oocyte positive Xenopus laevis frogs were purchased from Nasco, Inc. (WI). The frogs were kept on a 12/12 light-dark cycle and maintained on a diet of chopped calf liver every 3 days. Prior to surgery, frogs were anesthetized in a 0.15% Tricaine solution (Sigma, Mo.) for 30-45 minutes. Ovarian sections containing the follicular oocytes were removed through a lateral abdominal incision and were immediately placed in calcium-free ND96 solution (in mM):96 NaCl; 1 MgCl2; 2 KCl; 5 Hepes; 2.5 pyruvate (pH adjusted to 7.4 with NaOH). Following a 2 hr. incubation in 0.2% collagenase type II (Sigma, Mo.) at room temperature, individual defolliculated oocytes were transferred into 60×15 mm glass petri dishes containing ND96 solution (in mM): 96 NaCl; 1 MgCl2; 2 KCl; 1.8 CaCl2; 5 Hepes; 2.5 pyruvate (pH adjusted to 7.4 with NaOH). The isolated oocytes were maintained in an incubator at 18° C. On the following date, batches of 20-40 selected oocytes (Dumont stage V and VI) were injected with 50 nl of prepared RNA solution (0.5 ng of NR1 and 12 ng of NR2A mRNAs per oocyte) using an electronic microinjector (Drummond, Pa.). The injected oocytes were used for electrophysiological experiments following 4-10 day incubation at 18° C.
Electrical recording and drug application. The ion current recordings were obtained in two electrodes voltage-clamp mode using an Axoclamp-2A amplifier (Axon Instruments, Inc., CA). The microelectrodes were fabricated with a programmed puller (Sutter Instrument Co., CA) from glass capillaries (Dagan, Minn.) and filled with 3M KCl solution. The resistance of filled microelectrodes was in the range of 2.5-3.5 M.OMEGA.. The oocytes were clamped at a holding potential of -70 mV. The membrane current was filtered at 500 Hz and sampled at 100 Hz frequency. The drugs were applied using a gravity driven external perfusion system. The data acquisition and external perfusion control were done using SuperScopeII software package (GW Instruments, MA). All experiments were performed at room temperature of 22-24° C.
The degree of modulation of the amino acid response by steroids, the percent change, was defined at (I'/I-1)×100%, where I and I' are respectively the agonist-induced currents in the absence and presence of steroid. Throughout, results are expressed as mean±SEM; statistical comparison of groups was carried out using Student's t test.
In general terms: Two-electrode voltage clamp is typically applied to oocytes expressing channels or transporters.

The test system of another series is AMPA receptors. The series can be described thus: Whole cell patch clamp, AMPA-induced current in cultured chick spinal cord neurons. Format: cell-based. Particulars: 100 μM steroid; -70 mV. Here is the method:
as §1, §2

The mark [3] stands for this setting: 200 μM steroid in the absence of PS.
Where [4] appears, read: 200 μM steroid in the presence of 200 μM PS.

Structures are written as SMILES. pIC50: −log10 of the molar value. In brackets after ≈: the same amount, converted by molar mass. Counter-ions that a name gives are not always drawn. Like-named read-outs stand apart in the source and are kept apart here.

What is called solubility is the dissolved amount per volume that the medium holds. Low values mean a poorly soluble substance, high ones a readily soluble substance. By pIC50 is commonly meant the negative decadic logarithm of the IC50, by convention in mol/L.

T1 sequence (Q00959 23-1464, other chains not shown): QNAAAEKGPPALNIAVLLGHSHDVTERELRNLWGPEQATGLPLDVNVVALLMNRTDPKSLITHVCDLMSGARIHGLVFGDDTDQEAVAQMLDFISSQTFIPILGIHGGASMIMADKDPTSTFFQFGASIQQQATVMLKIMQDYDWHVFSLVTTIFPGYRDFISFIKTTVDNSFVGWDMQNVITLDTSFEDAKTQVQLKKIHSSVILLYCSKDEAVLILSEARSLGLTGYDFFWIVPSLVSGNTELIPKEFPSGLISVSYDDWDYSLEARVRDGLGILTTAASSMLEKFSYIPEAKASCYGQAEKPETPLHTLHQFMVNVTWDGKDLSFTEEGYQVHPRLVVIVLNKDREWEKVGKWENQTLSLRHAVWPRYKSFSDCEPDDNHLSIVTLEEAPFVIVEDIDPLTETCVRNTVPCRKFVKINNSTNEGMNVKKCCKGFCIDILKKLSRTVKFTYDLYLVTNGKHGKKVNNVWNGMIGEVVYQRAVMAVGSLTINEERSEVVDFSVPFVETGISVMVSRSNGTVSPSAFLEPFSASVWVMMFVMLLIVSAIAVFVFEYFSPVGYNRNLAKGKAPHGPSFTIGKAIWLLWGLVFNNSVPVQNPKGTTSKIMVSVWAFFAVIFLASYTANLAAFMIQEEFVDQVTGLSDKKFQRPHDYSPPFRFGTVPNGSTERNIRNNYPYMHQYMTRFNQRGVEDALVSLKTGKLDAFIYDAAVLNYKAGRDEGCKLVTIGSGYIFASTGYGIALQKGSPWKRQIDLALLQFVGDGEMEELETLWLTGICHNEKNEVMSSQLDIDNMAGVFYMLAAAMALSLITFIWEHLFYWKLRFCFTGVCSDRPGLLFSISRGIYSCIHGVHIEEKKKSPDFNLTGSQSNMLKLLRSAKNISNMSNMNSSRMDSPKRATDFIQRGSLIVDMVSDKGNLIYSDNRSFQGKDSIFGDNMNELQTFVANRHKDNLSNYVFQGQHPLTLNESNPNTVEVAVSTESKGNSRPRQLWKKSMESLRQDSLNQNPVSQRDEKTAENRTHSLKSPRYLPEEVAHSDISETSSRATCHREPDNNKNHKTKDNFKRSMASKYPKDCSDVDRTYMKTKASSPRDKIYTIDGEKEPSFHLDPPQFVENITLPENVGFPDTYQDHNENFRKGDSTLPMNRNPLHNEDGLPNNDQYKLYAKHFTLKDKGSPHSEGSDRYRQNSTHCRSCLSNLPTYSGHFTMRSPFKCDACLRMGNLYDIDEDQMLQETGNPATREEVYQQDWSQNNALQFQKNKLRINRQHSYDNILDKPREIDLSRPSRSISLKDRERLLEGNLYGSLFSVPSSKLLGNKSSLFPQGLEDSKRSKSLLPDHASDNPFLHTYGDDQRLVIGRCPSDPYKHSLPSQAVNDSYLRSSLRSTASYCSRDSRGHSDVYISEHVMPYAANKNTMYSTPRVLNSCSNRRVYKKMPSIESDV

Compound `CC(=O)[C@H]1CC[C@H]2[C@@H]3CC[C@@H]4C[C@H](O)CC[C@]4(C)[C@H]3CC[C@]12C` [5β3α, reference compound] had a solubility in series [1] of 50 µM (≈ 15.9 µg/mL). Also, in the series with NMDA receptor (50 μM nonsulfated steroid), the “potentiation of the 30 μM NMDA-induced current” value amounted to 3.6±8.4%. The “effect on the NMDA response” value with NMDA receptor (60 μM nonsulfated steroid) is “does not produce any significant effect”.
For `CC(=O)[C@H]1CC[C@H]2[C@@H]3CC[C@@H]4C[C@@H](OS(=O)(=O)O)CC[C@]4(C)[C@H]3CC[C@]12C` [5β3βS, 3β-hydroxy-5β-pregnan-20-one sulfate], the “inhibition of the 50 μM kainate-induced current” value in the series on kainate receptors was determined as 33%. For the same compound, the figures for the “inhibition of the NMDA response by extracellular steroid” value in the series on NMDA receptor (in the absence of intracellular 5β3βS) and in the series on NMDA receptor (in the presence of intracellular 5β3βS) were 48±4% and 44±4%, respectively. Moreover, the “inhibition of the response to 30 μM NMDA” value in the series on NMDA receptor (100 μM steroid applied with NMDA, holding potential -70 mV) is listed as 59%. The “inhibition of the 30 μM NMDA response with saturating glycine” value with NMDA receptor (100 μM steroid, 10 μM glycine) is “did not significantly differ from that measured without added glycine”. Besides, the “average inhibition of the NMDA response” value with NMDA receptor (100 μM steroid, CsCl-containing intracellular solution, 2 cells) stood at 49±5.0%. For the same compound, the “inhibition of the NMDA response” value with NMDA receptor (100 μM steroid, in the presence of 100 μM spermine) was found to be 50±5%; in the series with NMDA receptor (after NEM treatment), 53±5%; in the series on NMDA receptor (in the presence of arachidonic acid), 49±5%. Also, the “inhibition of the peak NMDA response” value in the series on NMDA receptor (setting [3]) is 59±3%; with NMDA receptor (setting [4]), 50±4%; in series [2] (setting [3]), 46±8%; in series [2] (setting [4]), 54±5%. Further, the “effect of intracellular steroid on NMDA-induced currents” value in the series on NMDA receptor (200 μM steroid in the intracellular buffer) is on record as “does not inhibit the NMDA-induced currents”. Also, the pIC50 in the series with NMDA receptor (in the absence of PS) is 3.84; in the series with NMDA receptor (in the presence of 200 μM PS), 3.92; in series [2] (IC50, in the absence of PS) it was 3.82; in series [2] (IC50, in the presence of 200 μM PS), 3.91. In the series with NMDA receptor (steroid alone at greater than or equal to 100 μM, K+ current, not seen with CsCl intracellular solution), the “direct response to steroid applied alone” value is “often induced a small outward current”. Besides, in series [2] (200 μM steroid), the “inhibition of a near maximal NMDA response (200 μM)” value was 54±8%. Also, the “inhibition of the 25 μM AMPA-induced current” value in the series on AMPA receptors is on record as 43%.
